# Where no end group is shown, it is not given here.
# Assays:
# Hck-SH3 [1] = details: ITC, ref [12]; cited from earlier work
# Fyn(WT)-SH3 = Fyn(WT)-SH3 (Homo sapiens, UniProt P06241); experiment: Yeast two-hybrid assay; format: cell-based; details: negative control for RT-loop selection
# Hck-SH3 [2] = experiment: Yeast two-hybrid assay; format: cell-based, human; details: negative control for RT-loop selection
# Fyn(R96I)-SH3 = experiment: Yeast two-hybrid assay; format: cell-based, human; details: negative control for RT-loop selection
# Sequence of Fyn(WT)-SH3 (P06241 82-143 limits assumed): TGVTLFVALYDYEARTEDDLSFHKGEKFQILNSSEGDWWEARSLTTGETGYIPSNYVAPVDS
Substance,binding characteristics toward Hck-SH3 compared with ALIXV+PRR (Hck-SH3 [1]),yeast two-hybrid interaction strength (Fyn(WT)-SH3),yeast two-hybrid interaction strength (Hck-SH3 [2]),yeast two-hybrid interaction strength (Fyn(R96I)-SH3)
PTPPTPAPRTMPPTKPQPPARPPP [ALIXPI],did not fully reproduce the binding characteristics of ALIXV+PRR toward Hck-SH3,–,–,–
SAM68: Src-associated in mitosis 68 kDa (SAM68) protein,–,interacted with comparable strength with every SH3 domain,interacted with comparable strength with every SH3 domain,interacted with comparable strength with every SH3 domain

# Reference: paper PMC3378324 (Febs Letters, 2012)
